According to US6534448B1, “Composition and method for acidizing wells and equipment without damaging precipitation” (Halliburton Energy Services, Inc., priority 2000, dated 2003):

What was measured:
[1] = test system: marine copepod Arcatia tonsa; test: Static 48 hour toxicity test on marine copepod (draft ISO 14669:1999(E)); format: in vivo; details: test range 200.0 to 2000.0 mg l-1
Protocol: Test concentrations of sodium molybdate crystalline were prepared over the range 200.0 mg 1^−1 to 2000.0 mg 1^−1.

[2] = Amounts of electron transfer agents needed to reduce 2500 ppm ferric ion in less than five minutes (Example III); details: 15 lbs./Mgal Na2MoO4 in 15% HCl, room temperature
Protocol: The above concentrations were arrived at from room temperature experiments.
Next, tests were conducted to determine the optimum amounts of the electron transfer agent(s) that should be employed in the inventive acidizing composition. Each test fluid included 1% by volume thioglycolic acid, based on the total volume of the acid solution and was contaminated with 2500 ppm ferric ion (by adding a sufficient amount of ferric chloride to the fluid).
These fluids also included the primary electron transfer agent, either sodium molybdate or ammonium molybdate. The amount the molybdate utilized was varied.
These fluids also included the primary electron transfer agent, either sodium molybdate or ammonium molybdate, and the supplemental electron transfer agent (potassium iodide). The amounts of the molybdate and potassium iodide utilized were varied.
The tests were carried out at room temperature. The test fluids were contaminated with 2500 ppm of ferric ion by adding a corresponding amount of iron chloride (FeCl3.H2O) thereto.
It was determined that a complete reduction had taken place when the test fluids changed back to the red-brown color.
It was determined that a complete reduction had taken place when the test fluids changed back to the emerald green color (verified by UV-VIS experiments).

[3] = in vivo

## [Na+].[Na+].[O]=[Mo](=[O])([O-])[O-] [sodium molybdate crystalline, sodium molybdate]
[1]; 24 hours
  24 hour EC50 (concentration which immobilized 50% of the copepods): > 2000.0 µg/mL
[1]; 48 hours
  48 hour EC50 (concentration which immobilized 50% of the copepods): > 2000.0 µg/mL
[2]
  time required for reduction of 2500 ppm Fe(III) to Fe(II): 2 to 3 min

## [Cl][Cu] [cuprous chloride]
[3]
  concentration found to be toxic: ≥ 10 ng/mL
